The text below walks through data of patent US12643905B2, “Spiropyrrolidine derived antiviral agents” (priority 2021, dated 2026).

The test system of test [1] is 229E human corona virus (hCoV). Kind of test: 229E live virus assay (CPE, ATPlite readout in MRC-5 cells). The test is classed as cell-based, hCoV-229E. To be noted: Human coronavirus 229E, MRC5, 144 h, MOI 0.05, 6 days at 34° C., run in duplicate. For orientation: In ATP-based viability assays light output follows the ATP content of the culture.
For test [2], the target named is SARS-CoV-2 3CL-protease (Severe acute respiratory syndrome coronavirus 2, UniProt P0DTD1). The test is described as follows: SARS-CoV-2 3C-like (3CL) protease fluorescence assay (FRET). The format is biochemical. To be noted: 30 min preincubation, run in duplicate.
Setting [3] is: recombinant SARS-CoV-2 3CL-protease 10 nM, read-out: FRET IC50.

Read-outs that look alike come from different tables or passages of the source.

What is called EC50 is the concentration at which the effect is half-maximal. Read a high EC50 as lower potency in that assay. As to `CC(C)C[C@@H](C(=O)N1C[C@]2(C[C@H]1C#N)C(=O)Nc1ccccc12)N(C)C(=O)C(=O)Nc1ccc(F)cc1F` [Example 1], in test [1], the EC50 is below 0.1 µM. The term IC50 denotes the concentration needed to halve the response being measured. In test [1], `N#C[C@@H]1C[C@@]2(CN1C(=O)[C@H](CC1CC1)NC(=O)C(=O)NC1(c3ccc(F)cc3F)CC1)C(=O)Nc1ccccc12` [Example 74] returned a half-maximal effective concentration (EC50) below 0.1 µM. The half-inhibitory concentration (IC50) in test [2] (setting [3]) is below 0.1 µM.

As for `CCCC[C@H](NC(=O)C(=O)Nc1ccc(F)cc1C(F)(F)F)C(=O)N1C[C@]2(C[C@H]1C#N)C(=O)Nc1ccccc12` [Example 75], the EC50 in test [1] was below 0.1 µM. Moreover, in test [2] (setting [3]), the IC50 was below 0.1 µM.

Turning to `CCCC[C@H](NC(=O)C(=O)NC1(c2ccc(F)cc2F)CC1)C(=O)N1C[C@]2(C[C@H]1C#N)C(=O)Nc1ccccc12` [Example 76], the half-maximal effective concentration (EC50) in test [1] is below 0.1 µM. For the same compound, the half-maximal inhibitory concentration (IC50) in test [2] (setting [3]) is below 0.1 µM.

In test [1], `N#C[C@@H]1C[C@@]2(CN1C(=O)[C@H](CC1CC1)NC(=O)C(=O)Nc1ccc(F)cc1C(F)(F)F)C(=O)Nc1ccccc12` [Example 77] showed a 50% effective concentration (EC50) below 0.1 µM. Moreover, the IC50 in test [2] (setting [3]) was below 0.1 µM. For `Cc1cccc(C)c1NC(=O)C(=O)N[C@@H](CC(C)(C)C)C(=O)N1C[C@]2(C[C@H]1C#N)C(=O)Nc1ccccc12` [Example 84], in test [1], the EC50 was below 0.1 µM. The 50% inhibitory concentration (IC50) in test [2] (setting [3]) was below 0.1 µM. Consider `CC(C)(C)C[C@H](NC(=O)C(=O)NC1CCC1)C(=O)N1C[C@]2(C[C@H]1C#N)C(=O)Nc1ccccc12` [Example 87], for which, in test [1], the half-maximal effective concentration (EC50) is below 0.1 µM. On the same count and under the same terms, the result for `CC(C)(C)C[C@H](NC(=O)C(=O)NC(C)(C)C)C(=O)N1C[C@]2(C[C@H]1C#N)C(=O)Nc1ccccc12` [Example 95] reads below 0.1 µM; that for `CC(C)(C)C[C@H](NC(=O)C(=O)Nc1ccccc1)C(=O)N1C[C@]2(C[C@H]1C#N)C(=O)Nc1ccccc12` [Example 104], below 0.1 µM. For `Cc1ccnc(C)c1NC(=O)C(=O)N[C@@H](CC(C)(C)C)C(=O)N1C[C@]2(C[C@H]1C#N)C(=O)Nc1ccccc12` [Example 152], the 50% inhibitory concentration (IC50) in test [2] (setting [3]) was below 0.1 µM. Consider `CC(C)(C)C[C@H](NC(=O)C(=O)Nc1cc(C(F)(F)F)ccn1)C(=O)N1C[C@]2(C[C@H]1C#N)C(=O)Nc1ccccc12` [Example 153], for which the IC50 in test [2] (setting [3]) was below 0.1 µM.

Consider `CC(C)(C)C[C@H](NC(=O)C(=O)Nc1ccc(C(F)(F)F)cn1)C(=O)N1C[C@]2(C[C@H]1C#N)C(=O)Nc1ccccc12` [Example 154], for which, in test [2] (setting [3]), the IC50 was below 0.1 µM. Regarding `CC(C)(C)C[C@H](NC(=O)C(=O)Nc1cccc(C(F)(F)F)n1)C(=O)N1C[C@]2(C[C@H]1C#N)C(=O)Nc1ccccc12` [Example 155], the IC50 in test [2] (setting [3]) is below 0.1 µM.

For the compound `CC(C)(C)C[C@H](NC(=O)C(=O)Nc1cnccc1C(F)(F)F)C(=O)N1C[C@]2(C[C@H]1C#N)C(=O)Nc1ccccc12` [Example 156], the IC50 in test [2] (setting [3]) is below 0.1 µM. On the same count and under the same terms, the value for `CC(C)(C)C[C@H](NC(=O)C(=O)Nc1cncc(C(F)(F)F)c1)C(=O)N1C[C@]2(C[C@H]1C#N)C(=O)Nc1ccccc12` [Example 157] was below 0.1 µM; that for `CC(C)(C)C[C@H](NC(=O)C(=O)Nc1ccc(C(F)(F)F)nc1)C(=O)N1C[C@]2(C[C@H]1C#N)C(=O)Nc1ccccc12` [Example 158] was below 0.1 µM.

With `CC(C)(C)C[C@H](NC(=O)C(=O)Nc1cccnc1C(F)(F)F)C(=O)N1C[C@]2(C[C@H]1C#N)C(=O)Nc1ccccc12` [Example 162], in test [2] (setting [3]), the IC50 was below 0.1 µM.

Regarding `Cc1cccc(NC(=O)C(=O)N[C@@H](CC(C)(C)C)C(=O)N2C[C@]3(C[C@H]2C#N)C(=O)Nc2ccccc23)n1` [Example 163], the half-inhibitory concentration (IC50) in test [2] (setting [3]) is below 0.1 µM.

For the compound `CC(C)(C)C[C@H](NC(=O)C(=O)NC1(C)CCC1)C(=O)N1C[C@]2(C[C@H]1C#N)C(=O)Nc1ccccc12` [Example 164], in test [2] (setting [3]), the half-maximal inhibitory concentration (IC50) is below 0.1 µM. For `CC(C)(C)C[C@H](NC(=O)C(=O)N[C@@H]1CC2CC[C@H](C2)C1)C(=O)N1C[C@]2(C[C@H]1C#N)C(=O)Nc1ccccc12` [Example 165], the half-inhibitory concentration (IC50) in test [2] (setting [3]) is below 0.1 µM. Still for that read-out and setting: the value for `CC(C)(C)C[C@H](NC(=O)C(=O)Nc1ccc(C(F)(F)F)cc1C(F)(F)F)C(=O)N1C[C@]2(C[C@H]1C#N)C(=O)Nc1ccccc12` [Example 166] was below 0.1 µM; that for `N#C[C@@H]1C[C@@]2(CN1C(=O)[C@H](CC1CC1)NC(=O)C(=O)Nc1ncccc1C(F)(F)F)C(=O)Nc1ccccc12` [Example 167] was below 0.1 µM; that for `N#C[C@@H]1C[C@@]2(CN1C(=O)[C@H](CC1CC1)NC(=O)C(=O)Nc1cc(C(F)(F)F)ccn1)C(=O)Nc1ccccc12` [Example 168] was below 0.1 µM. The same measure, in the same setting: the result for `N#C[C@@H]1C[C@@]2(CN1C(=O)[C@H](CC1CC1)NC(=O)C(=O)Nc1ccc(C(F)(F)F)cn1)C(=O)Nc1ccccc12` [Example 169] reads below 0.1 µM; that for `N#C[C@@H]1C[C@@]2(CN1C(=O)[C@H](CC1CC1)NC(=O)C(=O)Nc1cccc(C(F)(F)F)n1)C(=O)Nc1ccccc12` [Example 170], below 0.1 µM. The same measure, in the same setting: the value for `N#C[C@@H]1C[C@@]2(CN1C(=O)[C@H](CC1CC1)NC(=O)C(=O)Nc1ccncc1C(F)(F)F)C(=O)Nc1ccccc12` [Example 171] was below 0.1 µM; that for `N#C[C@@H]1C[C@@]2(CN1C(=O)[C@H](CC1CC1)NC(=O)C(=O)Nc1cnccc1C(F)(F)F)C(=O)Nc1ccccc12` [Example 172] was below 0.1 µM. As to `N#C[C@@H]1C[C@@]2(CN1C(=O)[C@H](CC1CC1)NC(=O)C(=O)Nc1cncc(C(F)(F)F)c1)C(=O)Nc1ccccc12` [Example 173], the IC50 in test [2] (setting [3]) was below 0.1 µM. For `N#C[C@@H]1C[C@@]2(CN1C(=O)[C@H](CC1CC1)NC(=O)C(=O)Nc1ccc(C(F)(F)F)nc1)C(=O)Nc1ccccc12` [Example 174], the IC50 in test [2] (setting [3]) is below 0.1 µM. Same read-out and setting: the result for `N#C[C@@H]1C[C@@]2(CN1C(=O)[C@H](CC1CC1)NC(=O)C(=O)Nc1cccnc1C(F)(F)F)C(=O)Nc1ccccc12` [Example 175] reads below 0.1 µM.

For the compound `N#C[C@@H]1C[C@@]2(CN1C(=O)[C@H](CC1CC1)NC(=O)C(=O)Nc1ccnc(C(F)(F)F)c1)C(=O)Nc1ccccc12` [Example 176], the concentration for half-maximal inhibition (IC50) in test [2] (setting [3]) was below 0.1 µM.

`CC(C)(C)C[C@H](NC(=O)C(=O)Nc1ccncc1C(F)(F)F)C(=O)N1C[C@]2(C[C@H]1C#N)C(=O)Nc1ccccc12` [Example 177]: the half-inhibitory concentration (IC50) in test [2] (setting [3]) was below 0.1 µM.

For `CC(C)(C)C[C@H](NC(=O)C(=O)C1CC1)C(=O)N1C[C@]2(C[C@H]1C#N)C(=O)Nc1ccccc12` [Example 178], in test [2] (setting [3]), the half-maximal inhibitory concentration (IC50) was 0.1 to 1 µM. On the same count and under the same terms, the result for `CC(C)(C)C[C@H](NC(=O)C(=O)OC(C)(C)C)C(=O)N1C[C@]2(C[C@H]1C#N)C(=O)Nc1ccccc12` [Example 188] reads 0.1 to 1 µM; that for `CC(C)(C)C[C@H](NC(=O)C(=O)OCc1ccccc1)C(=O)N1C[C@]2(C[C@H]1C#N)C(=O)Nc1ccccc12` [Example 189], above 1 µM; that for `N#C[C@@H]1C[C@@]2(CN1C(=O)[C@H](CC1CC1)NC(=O)C(=O)Nc1c(Cl)cccc1C(F)(F)F)C(=O)Nc1ccccc12` [Example 194], below 0.1 µM. The same measure, in the same setting: the result for `CC(C)(C)C[C@H](NC(=O)C(=O)Nc1ccccc1C(F)(F)F)C(=O)N1C[C@]2(C[C@H]1C#N)C(=O)Nc1ccccc12` [Example 195] reads below 0.1 µM; that for `CC(C)(C)C[C@H](NC(=O)C(=O)Nc1c(F)cccc1C(F)(F)F)C(=O)N1C[C@]2(C[C@H]1C#N)C(=O)Nc1ccccc12` [Example 196], below 0.1 µM; that for `CC(C)(C)C[C@H](NC(=O)C(=O)Nc1c(Cl)cccc1C(F)(F)F)C(=O)N1C[C@]2(C[C@H]1C#N)C(=O)Nc1ccccc12` [Example 197], below 0.1 µM.

`CN(C(=O)C(=O)Nc1ccc(C(F)(F)F)cc1C(F)(F)F)[C@@H](CC1CC1)C(=O)N1C[C@]2(C[C@H]1C#N)C(=O)Nc1ccccc12` [Example 198]: the IC50 in test [2] (FRET IC50, recombinant SARS-CoV-2 3CL-protease 10 nM) is below 0.1 µM. Consider `N#C[C@@H]1C[C@@]2(CN1C(=O)[C@H](CC1CC1)NC(=O)C(=O)Nc1ccc(C(F)(F)F)cc1C(F)(F)F)C(=O)Nc1ccccc12` [Example 199], for which, in test [2] (setting [3]), the 50% inhibitory concentration (IC50) is below 0.1 µM. As to `N#C[C@@H]1C[C@@]2(CN1C(=O)[C@H](CC1CC1)NC(=O)C(=O)Nc1c(F)cccc1C(F)(F)F)C(=O)Nc1ccccc12` [Example 200], the half-maximal inhibitory concentration (IC50) in test [2] (setting [3]) is below 0.1 µM.

On to `Cc1cccc(C)c1NC(=O)C(=O)N[C@@H](CC(C)C)C(=O)N1C[C@]2(C[C@H]1C#N)C(=O)Nc1ccccc12` [Example 201], for which the IC50 in test [2] (setting [3]) is below 0.1 µM. As for `CCCC[C@H](NC(=O)C(=O)Nc1c(C)cccc1C)C(=O)N1C[C@]2(C[C@H]1C#N)C(=O)Nc1ccccc12` [Example 202], the IC50 in test [2] (setting [3]) is below 0.1 µM. Still for that read-out and setting: the value for `Cc1cccc(C)c1NC(=O)C(=O)N[C@@H](Cc1ccccc1)C(=O)N1C[C@]2(C[C@H]1C#N)C(=O)Nc1ccccc12` [Example 203] was below 0.1 µM; that for `CC(C)(C)C[C@H](NC(=O)C(=O)Nc1c(Cl)cc(F)cc1Cl)C(=O)N1C[C@]2(C[C@H]1C#N)C(=O)Nc1ccccc12` [Example 204] was below 0.1 µM. Same read-out and setting: the value for `N#C[C@@H]1C[C@@]2(CN1C(=O)[C@H](CC1CC1)NC(=O)C(=O)Nc1c(Cl)cc(Cl)cc1C(F)(F)F)C(=O)Nc1ccccc12` [Example 205] was below 0.1 µM. Take `N#C[C@@H]1C[C@@]2(CN1C(=O)[C@H](CC1CC1)NC(=O)C(=O)Nc1c(C(F)(F)F)cncc1C(F)(F)F)C(=O)Nc1ccccc12` [Example 206]: in test [2] (setting [3]), the IC50 is below 0.1 µM. Still for that read-out and setting: the result for `CC(C)(C)C[C@H](NC(=O)C(=O)Nc1c(C(F)(F)F)cncc1C(F)(F)F)C(=O)N1C[C@]2(C[C@H]1C#N)C(=O)Nc1ccccc12` [Example 207] reads below 0.1 µM; that for `N#C[C@@H]1C[C@@]2(CN1C(=O)[C@H](CC1CC1)NC(=O)C(=O)Nc1c(C(F)(F)F)cccc1C(F)(F)F)C(=O)Nc1ccccc12` [Example 208], below 0.1 µM; that for `N#C[C@@H]1C[C@@]2(CN1C(=O)[C@H](CC1CC1)NC(=O)C(=O)Nc1c(Cl)cc(F)cc1C(F)(F)F)C(=O)Nc1ccccc12` [Example 209], below 0.1 µM. For `CC(C)(C)C[C@H](NC(=O)C(=O)Nc1c(C(F)(F)F)ccc(Cl)c1Cl)C(=O)N1C[C@]2(C[C@H]1C#N)C(=O)Nc1ccccc12` [Example 210], the 50% inhibitory concentration (IC50) in test [2] (setting [3]) was below 0.1 µM.
